Patent US8198279B2, “Pyrido[2,3-b]pyrazin-8-substituted compounds and their use” (Institute of Cancer Research: Royal Cancer Hospital (The), priority 2007, dated 2012)

Columns and labels:
[1] = biological target: T1, B-RAF (Homo sapiens, UniProt P15056, V600E); experiment: DELFIA Kinase Assay; format: biochemical; settings: 100 μM ATP, GST-MEK substrate
T1 construct: made in house
Summary of the method: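 Recombinant B-RAF (V600E) with GST-MEK substrate was preincubated with compound for 10 min at room temperature, then reacted with 100 μM ATP for 45 min on milk-preblocked wells, with antibody detection by DELFIA europium fluorescence. Response is taken as % of DMSO control after empty-vector blank subtraction; IC50 is from a variable-slope sigmoidal fit, mean of usually three independent runs.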

[2] = test system: pERK; experiment: Cell Based Phospho-ERK Assay; settings: 6 h, 6 hours incubation with test compound
Procedure: Biological Methods—Cell Based Phosho-ERK Assay
Compounds were assessed using a cell-based assay which was performed according to the following protocol.
Plate out 16,000 cells/well in 99 μL medium in a 96-well plate.
• 1. Add 1 μL inhibitor to the cells (total […] solution). • 2. Incubate the cells with test compound for 6 hours at 37° C. • 3. Aspirate off the solution from all of the wells. • 4. Fixate the cells with 100 μL 4% formaldehyde/0.25% Triton X-100 PBS per well. • 5. Incubate the plate for 1 hour at 4° C. • 6. Aspirate off the fixing solution and add 300 μL TBS per well. • 7. Leave the plate overnight at 4° C. Day 2: • 1. Wash the plate 2× with 200 μL PBS per well. • 2. Block with 100 μL 5% dried milk in TBS. • 3. Incubate the plate for 20 minutes at 37° C. • 4. Wash the plate 2× with 0.1% tween/H2O. • 5. Add 50 μL of 3 μg/mL primary antibody pERK (Sigma M8159), diluted in 5% milk powder/TBS, to each well. • 6. Incubate the plate for 2 hours at 37° C. • 7. Wash the plate 3× with 0.1% tween/H2O. • 8. Add 50 μL of 0.45 μg/mL secondary Europium-labelled anti-mouse antibody (Perkin Elmer) to each well. • 9. Incubate the plate for 1 hour at 37° C. • 10. Wash the plate 3× with 0.1% tween/H2O. • 11. Add 100 μL enhancement solution (Perkin Elmer) to each well. • 12. Leave the plate for approximately 10 minutes at room temperature before gently shaking the plate. • 13. Read Europium Time Resolved Fluorescence in Victor2. • 14. Wash the plate 2× with 0.1% tween/H2O. • 15. Measure the protein concentration with BCA (Sigma) by adding 200 μL of solution per well. • 16. Incubate the plate for 30 minutes at 37° C. • 17. Read absorbance levels at 570 nm in a plate reader.
Note that Europium counts are normalised for protein levels by dividing counts by absorbance.
Values for the blank (no cells) are subtracted from all values. The DMSO controls are set as 100% activity and assay points (the response) are calculated as a percentage of the DMSO control. Data are plotted using Graphpad Prism software and a non-linear regression line is calculated using a variable slope sigmoidal dose-response equation (Y=Bottom+(Top−Bottom)/(1+10^((LogEC50−X)*HillSlope)) where X is the logarithm of concentration. Y is the response). The IC50 generated by this procedure is the concentration of the drug that produces a percentage control fluorescence value midway between the saturation, and zero-effect plateaus. Three independent assays are usually performed and the mean IC50 is reported.

[3] = test system: WM266.4 melanoma cells; experiment: SRB Cell Proliferation Assay (SRB GI50); format: cell-based; settings: Homo sapiens, WM 266-4, 144 h, 6 days growth
Procedure: Biological Methods —SRB Cell Proliferation Assay (SRB GI50)
Cultures of WM266.4 melanoma cells are routinely cultured in DMEM/10% foetal bovine serum, at 37° C., in 5% CO2 water saturated atmosphere. Cultures are maintained in exponential growth phase by sub-culturing before having become confluent (3-5 day intervals). Single cell suspensions are prepared by harvesting an 80 cm^2 tissue culture flask with 5 mL commercial trypsin EDTA. After 5 minutes, the detached cells are mixed with 5 mL fully complemented culture medium and centrifugally pelleted (1000 rpm for 7 minutes). After aspirating the supernatant, the cell pellet is re-suspended in 10 mL fresh medium and the cells fully disaggregated by drawing the whole volume up/down 5 times through a 19-gauge needle. The concentration of the cells is determined using a haemocytometer (1/10 dilution). A suitable volume to give at least a 2-fold excess for the number of tests being conducted, typically 100-200 mL, is prepared by diluting the cell suspension to 10,000/mL, and 100 μL/well dispensed into 96 well plates using a programmable 8-channel peristaltic pump, giving 1000 cells/well, leaving column 12 blank. The plates are returned to the incubator for 24 hours to allow the cells to re-attach.
The compounds being tested are prepared at 20 mM in dimethylsulphoxide. Aliquots (200 μL) are diluted into 20 mL culture medium giving 200 μM, and 10 serial dilutions of 3× performed by transferring 5 mL to 10 mL. Aliquots (100 μL) of each dilution are added to the wells, using an 8-channel pipettor, thus performing a final further 2× dilution, and giving doses ranging from 100 μM to 0.005 μM. Column 11 receives plain culture medium only. Each compound is tested in quadruplicate, each replicate being the average of four wells, and two plates per compound.
After a further 6 days growth, the plates are emptied, and the cells are fixed in 10% trichloroacteic acid for 10 minutes on ice. After thorough rinsing in running tap water, the plates are dried, and stained by adding 50 μL of a solution of 0.1% sulphorhodamine-B in 1% acetic acid, for 10 minutes at room temperature. The stain is poured out and the plates thoroughly rinsed under a stream of 1% acetic acid, thus removing unbound stain, and dried. The bound stain is taken into solution by addition of 150 μL Tris buffer pH 8, followed by 10 minutes on a plate-shaker (approximately 500 rpm). The absorbance at 540 nm in each well (being proportional to the number of cells present) is determined using a plate reader.
After averaging the results in rows A-D and E-H, the blank value (row 12) is subtracted, and results expressed as percentage of the untreated value (row 11). […] The GI50 generated by this procedure is the concentration of the drug that produces a percentage control A540 midway between the saturation, and zero-effect plateaus.

T1 sequence (P15056 whole entry V600E): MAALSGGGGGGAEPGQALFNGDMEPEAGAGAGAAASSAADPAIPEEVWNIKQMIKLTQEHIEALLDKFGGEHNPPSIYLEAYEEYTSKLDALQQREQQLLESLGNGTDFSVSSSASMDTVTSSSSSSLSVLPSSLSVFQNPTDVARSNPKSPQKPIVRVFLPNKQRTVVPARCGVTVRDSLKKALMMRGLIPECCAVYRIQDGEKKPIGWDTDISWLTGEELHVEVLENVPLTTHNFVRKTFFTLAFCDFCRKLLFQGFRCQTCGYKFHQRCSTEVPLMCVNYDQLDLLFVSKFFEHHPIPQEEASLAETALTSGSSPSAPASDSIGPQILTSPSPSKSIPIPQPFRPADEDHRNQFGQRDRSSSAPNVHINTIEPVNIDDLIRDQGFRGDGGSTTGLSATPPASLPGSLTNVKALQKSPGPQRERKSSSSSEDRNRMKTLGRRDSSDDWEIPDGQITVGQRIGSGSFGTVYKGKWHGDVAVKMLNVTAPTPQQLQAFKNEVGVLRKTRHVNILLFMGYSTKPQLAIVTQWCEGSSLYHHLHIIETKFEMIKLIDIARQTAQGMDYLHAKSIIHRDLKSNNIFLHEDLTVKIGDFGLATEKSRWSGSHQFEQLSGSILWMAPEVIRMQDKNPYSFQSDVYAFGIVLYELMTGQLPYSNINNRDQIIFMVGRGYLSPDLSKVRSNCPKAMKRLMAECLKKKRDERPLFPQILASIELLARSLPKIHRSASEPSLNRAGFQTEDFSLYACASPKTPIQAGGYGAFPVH

Row | IC50 [1] | IC50 [2] | GI50 [3] | SMILES
1 | 100 to 1000 nM | 1000 to 10000 nM | 1000 to 10000 nM | CC(C)(C)c1cc(NC(=O)Nc2ccc(Oc3ccnc4[nH]c(=O)c(=O)[nH]c34)cc2F)n(-c2ccc(S(C)(=O)=O)cc2)n1 [AA-092, 1-(3-tert-butyl-1-(4-(methylsulfonyl)phenyl)-1H-pyrazol-5-yl)-3-(4-(2,3-dioxo-1,2,3,4-tetrahydropyrido[3,2-b]pyrazin-8-yloxy)-2-fluorophenyl)urea]
2 | < 100 nM | < 1000 nM | 1000 to 10000 nM | C#CCn1nc(C(C)(C)C)cc1NC(=O)Nc1ccc(Oc2ccnc3[nH]c(=O)cnc23)cc1F [AA-096]
3 | < 100 nM | 1000 to 10000 nM | 1000 to 10000 nM | O=C(Nc1ccc(Oc2ccnc3[nH]c(=O)cnc23)c(F)c1)Nc1cc(C(F)(F)F)ccc1F [AA-086, 1-(3-fluoro-4-(3-oxo-3,4-dihydropyrido[2,3-b]pyrazin-8-yloxy)phenyl)-3-(2-fluoro-5-(trifluoromethyl)phenyl)urea]
4 | 100 to 1000 nM | < 1000 nM | < 1000 nM | CSc1cc(Oc2ccnc3ncc(=O)[nH]c23)ccc1NC(=O)Nc1cc(C(C)(C)C)nn1-c1ccccc1 [AA-066, 1-(3-tert-butyl-1-phenyl-1H-pyrazol-5-yl)-3-(2-(methylthio)-4-(2-oxo-1,2-dihydropyrido[2,3-b]pyrazin-8-yloxy)phenyl)urea]
5 | 100 to 1000 nM | 1000 to 10000 nM | 1000 to 10000 nM | O=C(Nc1cc(C(F)(F)F)ccc1F)Nc1ccc(Oc2ccnc3nc(C(F)(F)F)c(=O)[nH]c23)c2ccccc12 [AA-083, 1-(2-fluoro-5-(trifluoromethyl)phenyl)-3-(4-(2-oxo-3-(trifluoromethyl)-1,2-dihydropyrido[2,3-b]pyrazin-8-yloxy)naphthalen-1-yl)urea]
6 | < 100 nM | < 1000 nM | < 1000 nM | CSc1cc(Oc2ccnc3[nH]c(=O)c(C)nc23)ccc1NC(=O)Nc1cc(C(C)(C)C)nn1-c1ccc(C)cc1 [AA-061, 1-(3-tert-butyl-1-p-tolyl-1H-pyrazol-5-yl)-3-(4-(2-methyl-3-oxo-3,4-dihydropyrido[2,3-b]pyrazin-8-yloxy)-2-(methylthio)phenyl)urea]
7 | 100 to 1000 nM | < 1000 nM | < 1000 nM | CC(C)(C)c1cc(NC(=O)Nc2ccc(Oc3ccnc4[nH]c(=O)c(=O)[nH]c34)cc2F)n(-c2ccccc2)n1 [AA-091, 1-(3-Tert-butyl-1-phenyl-1H-pyrazol-5-yl)-3-(4-(2,3-dioxo-1,2,3,4-tetrahydropyrido[3,2-b]pyrazin-8-yloxy)-2-fluorophenyl)urea]
8 | < 100 nM | < 1000 nM | < 1000 nM | COc1ccc(-n2nc(C(C)(C)C)cc2NC(=O)Nc2ccc(Oc3ccnc4[nH]c(=O)c(C)nc34)cc2SC)cn1 [AA-064, 1-(3-tert-butyl-1-(6-methoxypyridin-3-yl)-1H-pyrazol-5-yl)-3-(4-(2-methyl-3-oxo-3,4-dihydropyrido[2,3-b]pyrazin-8-yloxy)-2-(methylthio)phenyl)urea]
9 | < 100 nM | < 1000 nM | < 1000 nM | CC(C)(C)c1cc(NC(=O)Nc2ccc(Oc3ccnc4[nH]c(=O)c(N)nc34)c3ccccc23)n(-c2ccccc2)n1 [AA-080, 1-(4-(2-amino-3-oxo-3,4-dihydropyrido[2,3-b]pyrazin-8-yloxy)naphthalen-1-yl)-3-(3-tert-butyl-1-phenyl-1H-pyrazol-5-yl)urea]
10 | < 100 nM | < 1000 nM | < 1000 nM | CSc1cc(Oc2ccnc3[nH]c(=O)cnc23)ccc1NC(=O)Nc1cc(C(C)(C)C)nn1-c1ccccc1 [AA-067, 1-(3-tert-butyl-1-phenyl-1H-pyrazol-5-yl)-3-(2-(methylthio)-4-(3-oxo-3,4-dihydropyrido[2,3-b]pyrazin-8-yloxy)phenyl)urea]
11 | < 100 nM | < 1000 nM | < 1000 nM | CSc1cc(Oc2ccnc3[nH]c(=O)c(C)nc23)ccc1NC(=O)Nc1cc(C(C)(C)C)nn1-c1ccccc1 [AA-065, 1-(3-tert-butyl-1-phenyl-1H-pyrazol-5-yl)-3-(4-(2-methyl-3-oxo-3,4-dihydropyrido[2,3-b]pyrazin-8-yloxy)-2-(methylthio)phenyl)urea]
12 | < 100 nM | < 1000 nM | 1000 to 10000 nM | O=C(Nc1ccc(Oc2ccnc3[nH]c(=O)cnc23)cc1F)Nc1cc(C(F)(F)F)ccc1Oc1cccnc1 [AA-093, 1-(2-fluoro-4-(3-oxo-3,4-dihydropyrido[3,2-b]pyrazin-8-yloxy)phenyl)-3-(2-(pyridin-3-yloxy)-5-(trifluoromethyl)phenyl)urea]
13 | 100 to 1000 nM | < 1000 nM | < 1000 nM | CC(C)(C)c1cc(NC(=O)Nc2ccc(Oc3ccnc4ncc(=O)[nH]c34)cc2F)n(-c2ccccc2)n1 [AA-089, 1-(3-tert-butyl-1-phenyl-1H-pyrazol-5-yl)-3-(2-fluoro-4-(2-oxo-1,2-dihydropyrido[3,2-b]pyrazin-8-yloxy)phenyl)urea]
14 | < 100 nM | < 1000 nM | 1000 to 10000 nM | CC(C)(C)c1cc(NC(=O)Nc2ccc(Oc3ccnc4[nH]c(=O)cnc34)cc2F)n(CC2CC2)n1 [AA-097, 1-(3-Tert-butyl-1-(cyclopropylmethyl)-1H-pyrazol-5-yl)-3-(2-fluoro-4-(3-oxo-3,4-dihydropyrido[3,2-b]pyrazin-8-yloxy)phenyl)urea]
15 | 100 to 1000 nM | 1000 to 10000 nM | 1000 to 10000 nM | CC(C)(C)c1cc(NC(=O)Nc2cccc(Oc3ccnc4ncc(=O)[nH]c34)c2)n(-c2ccccc2)n1 [AA-076, 1-(3-tert-butyl-1-phenyl-1H-pyrazol-5-yl)-3-(3-(2-oxo-1,2-dihydropyrido[2,3-b]pyrazin-8-yloxy)phenyl)urea]
16 | < 100 nM | < 1000 nM | < 1000 nM | Cc1ccc(-n2nc(C(C)(C)C)cc2NC(=O)Nc2ccc(Oc3ccnc4[nH]c(=O)cnc34)c(F)c2)cc1 [AA-088, 1-(3-tert-butyl-1-p-tolyl-1H-pyrazol-5-yl)-3-(3-fluoro-4-(3-oxo-3,4-dihydropyrido[2,3-b]pyrazin-8-yloxy)phenyl)urea]
